Measurements reported in patent publication US9511074B2, “Methods of treating disorders associated with protein polymerization” (UNIVERSITY OF PITTSBURGH—OF THE COMMONWEALTH SYSTEM OF …, priority 2009, dated 2016).

Experiments:
[1] = test system: PiZ mice; assay: Hepatic fibrosis in PiZ mice (Sirius Red, hepatic hydroxyproline); assay type: in vivo, mouse
Description: Transgenic Mice PiZ mice that have been bred into the C57/BL6 background have been described previously (1). For the second and third series of experiments with CBZ we used PiZ mice that were re-derived onto the FVB/N background for a move into a new animal facility. The transgene that was used to generate the PiZ mouse is a genomic fragment of DNA that contains the coding regions of the ATZ gene together with introns and ˜2 kilobases of upstream and downstream flanking regions (10). […] In this perspective it is not an exact phenocopy of the classical form of AT deficiency. In particular it cannot be a model for the loss-of-function mechanisms associated with the classical form of AT deficiency. It is known to have abundant expression of ATZ in hepatocytes and other cell types that express ATZ in humans (11). In the liver there are abundant ATZ-containing intrahepatocytic globules and inflammation that is characteristic of what is seen in the human liver (11,12). […] Taken together, these observations indicate that the PiZ mouse is an appropriate model for the gain-of-toxic function mechanism that is responsible for liver damage in the classical form of AT deficiency. Indeed, the fact that these mice are endowed with endogenous AT function and therein normal levels of AT in the serum and body fluids make them an even more ‘pure’ model for liver damage by gain-of-toxic function. PiZ×GFP-LC3 mice, which generated green fluorescent autophagosomes, have been described previously (2). PiZ×IKKβ.hep were generated by mating of PiZ to IKKβ.hep, which has conditional hepatocyte-specific disruption of NF.B activation (M. Karin, 17). There is increased injury in the liver of these mice as evidenced by the hepatic hydroxyproline content, 153.3% of that in the PiZ mouse (FIG. 7).
Histology Sections of liver tissue were stained with hematoxylin and eosin, PAS, PAS after diastase treatment, TUNEL, PCNA, Ki67 and Sirius Red using standard techniques (18). Previous methods for staining with antibody to smooth muscle actin were used (19). Each was examined by the pathologist (GM) who was completely blinded to the experimental protocol. Sections of liver tissue were also stained with goat anti-human AT followed by donkey anti-goat Cy3 to detect AT-containing intracellular globules. Finally sections of liver tissue were stained with anti-GFP to optimize the detection of green fluorescent autophagosomes. The number of inflammatory nodules, AT-containing globules and autophagosomes were each quantified blindly by counting cells in 6 microscopic fields of 10 different sections for each liver. The number of nuclei, as determined by Hoechst staining, was used to exclude the possibility that different numbers of cells were counted in liver sections from mice treated with CBZ as compared to controls. Hepatic hydroxyproline concentration was determined by a well-established protocol (20,21).
Therapeutic regimens For the initial series of experiments in mice in vivo, the dose of 250 mg/kg/day for CBZ was based on previous studies of its biological effects in mice (22,23). […] CBZ was administered in DMSO by gavage once per day. Control mice were given an equivalent volume of DMSO by gavage. In a second series of experiments, doses of 200, 100 and 50 mg/kg/day of CBZ were administered for 6 weeks. The dose and route of administration of RAP, 2 mg/kg/day by intraperitoneal injection for 2 weeks, was based on previous studies that have shown activation of hepatic autophagy (24).

[2] = test system: ATZ in Atg5 deficient cell line; assay: ATZ levels in autophagy-deficient (Atg5-/-) MEF cell line; assay type: cell-based, murine; settings: Atg5-deficient cells
Description: Cell Lines The human epidermal HeLa cell line with doxycycline-regulated expression of ATZ (HTO/Z) has been described previously (1). HTO/M and HTO/Saar are HeLa cell lines with doxycycline-regulated expression of wild type AT and the AT Saar variant, respectively (1). A murine embryonic fibroblast cell line (MEF) with targeted disruption of Atg5 (2) was engineered for stable expression of ATZ using the previously described pRc/RSV-ATZ expression plasmid (3). A wild type MEF cell line was also engineered for stable expression of ATZ in the same way to serve as control. For experiments with CBZ, the inducible cell lines were cultured in the absence of doxycycline for at least 4 weeks for maximal expression of AT. The cells were then subcultured into separate monolayers in fresh complete growth medium and incubated for 48 hours in the absence or presence of CBZ or rapamycin (RAP). CBZ or RAP were added to the growth medium. The duration of incubation with CBZ was determined to be optimal at 48 hours based on experiments in which the duration was varied from 12 to 72 hours. Doses of CBZ were based on previous studies of its effects in cell lines (5,6). […]
For immunoblot analysis to detect AT, GAPDH or LC3, cells were lysed in 50 mM Tris-HCl, 150 mM NaCl, 1% NP-40, pH 8.0. Protein levels were quantified using the BCA protein assay (Pierce Biotechnology, Rockford, Ill.). […]

[3] = test system: ATZ in the HTO/Z cell line; assay: Pulse labeling and pulse-chase labeling of ATZ in the HTO/Z line; assay type: cell-based, human
Experimental: Radioimmunoprecipitation, SDS-PAGE and Immunoblot Analysis Biosynthetic labeling, pulse-chase labeling, immunoprecipitation and SDS-PAGE/fluorography for AT followed previously published protocols (1). […] For the pulse labeling experiments, HTO/Z cells were incubated for 48 hours in the absence or presence of CBZ in several different concentrations and then subjected to labeling for 30 mins. The cell lysates were then examined by immunoprecipitation and the immunoprecipitates analyzed by SDS-PAGE/fluorography. For the pulse-chase experiments, HTO/Z cells were incubated for 48 hours in the absence of presence of CBZ 30 μM and then pulse labeled for 30 mins. The cells were then washed and incubated in growth medium without tracer for several different time intervals to constitute the chase. CBZ 30 μM was included during the pulse and chase periods. The extracellular fluid and cell lysate samples were subjected to immunoprecipitation and the immunoprecipitates analyzed by SDS-PAGE/fluorography. All fluorograms were subjected to densitometry. The relative densitometric value of T0 is set at 100% and the remainder of the data set expressed as % of this control. The data are shown as mean+/−SE and the mean value at each time point is shown at the bottom of the figure.

NC(=O)N1c2ccccc2C=Cc2ccccc21 [CBZ, 5H-dibenz [b,f]azepine-5-carboxamide]
hepatic hydroxyproline concentrations ([1]; 200 mg kg-1 day-1 for 6 weeks): decreased
hepatic fibrosis (Sirius red) ([1]; 250 mg kg-1 for 2 weeks, FIG. 4E): marked decrease
decrease of hepatic hydroxyproline content ([1]; PiZ mice vs untreated PiZ, FIG. 7): 46.7%
lowest effective dose (hepatic hydroxyproline) ([1]; PiZ mice, 6 weeks): 200 mg/kg/day
hepatic hydroxyproline concentration ([1]; PiZ mice, mean±SD, control 2.27±1.02, P=0.0074): 1.21 ± 0.7 µg/mg dry weight
levels of soluble ATZ [2]: decrease
total protein synthesis or secretion (radioactivity in TCA precipitates) ([3]; HTO/Z cells): did not show any effects
synthesis of ATZ ([3]; pulse labeling 30 mins after 48 hours CBZ): did not affect
secretion of ATZ ([3]; pulse-chase, CBZ 30 μM): could not be attributed to enhanced secretion
half-time of disappearance of ATZ from the intracellular compartment ([3]; pulse-chase, CBZ 30 μM, 200 min in untreated cells): 130 min
